Experimental data published in patent US20260365670A1, “EGFR INHIBITORS AND USES THEREOF” (DIZAL (JIANGSU) PHARMACEUTICAL CO., LTD., priority 2022, published 2026).
Read-outs that look alike come from different tables or passages of the source.

Key:
[1] = target: T1, EGFR Exon19Del/T790M (Homo sapiens, UniProt P00533, DEL746-750/T790M); experiment: Inhibition of EGFR Exon19Del/T790M biochemical enzymatic activity (HTRF); details: EGFR Del19-T790M, 1 mM ATP, 1 h, room temperature, read-out: IC50 (nM) @Del19-T790M
T1 construct: purchased Carna Bio
Procedure, shortened: (§1)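 In a buffer with 5 mM MgCl2, 1 mM MnCl2, 1 mM DTT and 0.01% CHAPS, enzyme turnover of 1 μM biotinylated TK substrate at 1 mM ATP is followed by HTRF after 1 h at room temperature. IC50 is obtained by a four-parameter fit.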

[2] = target: T2, EGFR (C797S L858R) (Homo sapiens, UniProt P00533, C797S/L858R); experiment: Inhibition of EGFR (C797S L858R) biochemical enzymatic activity (HTRF); details: EGFR L858-C797S, 1 mM ATP, 1 h, room temperature, read-out: IC50 (nM) @L858-C797S
T2 construct: purchased signalchem
Procedure, shortened: as §1

[3] = target: T3, EGFR Exon19Del (Homo sapiens, UniProt P00533, DEL746-750); experiment: Inhibition of EGFR Exon19Del biochemical enzymatic activity (HTRF); details: EGFR Del19, 1 mM ATP, 1 h, room temperature, read-out: IC50 @Del19
T3 construct: purchased Carna Bio
Procedure, shortened: as §1

[4] = target: T4, EGFR (d746-750 C797S) (Homo sapiens, UniProt P00533, C797S/DEL746-750); experiment: Inhibition of EGFR (d746-750 C797S) biochemical enzymatic activity (HTRF); details: EGFR Del19-C797S, 1 mM ATP, 1 h, room temperature, read-out: IC50 (nM) @Del19-C797S
T4 construct: purchased signalchem
Procedure, shortened: as §1

[5] = target: T5, EGFR L858R (Homo sapiens, UniProt P00533, L858R); experiment: Inhibition of EGFR L858R biochemical enzymatic activity (HTRF); details: 1 mM ATP, 1 h, room temperature, read-out: IC50 (nM) @L858R
T5 construct: purchased Carna Bio
Procedure, shortened: as §1

[6] = target: T6, EGFR wild type (Homo sapiens, UniProt P00533); experiment: Inhibition of EGFR wild type biochemical enzymatic activity (HTRF); details: EGFR WT, 1 mM ATP, 1 h, room temperature, read-out: IC50 (nM) @WT
T6 construct: purchased Carna Bio
Procedure, shortened: as §1

[7] = test system: A-431; experiment: Cell proliferation GI50, A-431 cells (Table 6); assay type: cell-based
[8] = target: T7, EGFR L858R/T790M (Homo sapiens, UniProt P00533, L858R/T790M); experiment: Inhibition of EGFR L858R/T790M biochemical enzymatic activity (HTRF); details: EGFR L858R-T790M, 1 mM ATP, 1 h, room temperature, read-out: IC50 (nM) @L858R-T790M
T7 construct: purchased Carna Bio
Procedure, shortened: as §1

[9] = target: T8, EGFR[T790M/C797S/L858R] (Homo sapiens, UniProt P00533, C797S/L858R/T790M); experiment: Inhibition of EGFR[T790M/C797S/L858R] biochemical enzymatic activity (HTRF); details: EGFR T790M-C797S-L858R, 1 mM ATP, 1 h, room temperature, read-out: IC50 (nM) @T790M- C797S - L858R
T8 construct: purchased Carna Bio
Procedure, shortened: as §1

[10] = test system: Ba/F3 cells expressing EGFR mutations; experiment: Cell proliferation assay, Ba/F3 cells expressing EGFR mutations (CellTiter-Glo, 72 hours); assay type: cell-based; details: CellTiter-Glo
Procedure, shortened: (§2)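 Luminescent viable-cell counts were taken on a day 0 plate at dosing and again at endpoint. Proliferation was calculated as (sample − G0)/(DMSO − G0). Seeding was 5000 Ba/F3 or 500 PC-9 cells per well in RPMI1640, followed by overnight attachment and serial compound dilutions. The GI50 was fitted.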

[11] = target: T9, EGFR[T790M/C797S/d746-750] (Homo sapiens, UniProt P00533, C797S/DEL746-750/T790M); experiment: Inhibition of EGFR[T790M/C797S/d746-750] biochemical enzymatic activity (HTRF); details: EGFR T790M-C797S-Del19, 1 mM ATP, 1 h, room temperature, read-out: IC50 (nM) @T790M - C797S - Del19
T9 construct: purchased Carna Bio
Procedure, shortened: as §1

[12] = test system: PC-9; experiment: Cell proliferation assay, PC-9 cells (CellTiter-Glo, 72 hours); assay type: cell-based; details: PC9 cells, CellTiter-Glo, read-out: PC9 GI50
Procedure, shortened: as §2

[13] = BaF3 cells, EGFR DEL19-C797S, read-out: DEL19-C797S/BaF3 GI50
[14] = BaF3 cells, EGFR DEL19-T790-C797S, read-out: DEL19-T790-C797S/BaF3 GI50
[15] = BaF3 cells, EGFR L858R, read-out: L858R/BaF3 GI50
[16] = BaF3 cells, EGFR L858R-C797S, read-out: L858R-C797S/BaF3 GI50
[17] = BaF3 cells, EGFR L858R-T790-C797S, read-out: L858R-T790-C797S/BaF3 GI50
[18] = BaF3 cells, EGFR L858R-T790M, read-out: L858R-T790M/BaF3 GI50
[19] = EGFR DEL19-T790M, read-out: DEL19-T790M GI50
[20] = Homo sapiens, A-431, A-431 cells

T6 sequence (P00533 25-1210): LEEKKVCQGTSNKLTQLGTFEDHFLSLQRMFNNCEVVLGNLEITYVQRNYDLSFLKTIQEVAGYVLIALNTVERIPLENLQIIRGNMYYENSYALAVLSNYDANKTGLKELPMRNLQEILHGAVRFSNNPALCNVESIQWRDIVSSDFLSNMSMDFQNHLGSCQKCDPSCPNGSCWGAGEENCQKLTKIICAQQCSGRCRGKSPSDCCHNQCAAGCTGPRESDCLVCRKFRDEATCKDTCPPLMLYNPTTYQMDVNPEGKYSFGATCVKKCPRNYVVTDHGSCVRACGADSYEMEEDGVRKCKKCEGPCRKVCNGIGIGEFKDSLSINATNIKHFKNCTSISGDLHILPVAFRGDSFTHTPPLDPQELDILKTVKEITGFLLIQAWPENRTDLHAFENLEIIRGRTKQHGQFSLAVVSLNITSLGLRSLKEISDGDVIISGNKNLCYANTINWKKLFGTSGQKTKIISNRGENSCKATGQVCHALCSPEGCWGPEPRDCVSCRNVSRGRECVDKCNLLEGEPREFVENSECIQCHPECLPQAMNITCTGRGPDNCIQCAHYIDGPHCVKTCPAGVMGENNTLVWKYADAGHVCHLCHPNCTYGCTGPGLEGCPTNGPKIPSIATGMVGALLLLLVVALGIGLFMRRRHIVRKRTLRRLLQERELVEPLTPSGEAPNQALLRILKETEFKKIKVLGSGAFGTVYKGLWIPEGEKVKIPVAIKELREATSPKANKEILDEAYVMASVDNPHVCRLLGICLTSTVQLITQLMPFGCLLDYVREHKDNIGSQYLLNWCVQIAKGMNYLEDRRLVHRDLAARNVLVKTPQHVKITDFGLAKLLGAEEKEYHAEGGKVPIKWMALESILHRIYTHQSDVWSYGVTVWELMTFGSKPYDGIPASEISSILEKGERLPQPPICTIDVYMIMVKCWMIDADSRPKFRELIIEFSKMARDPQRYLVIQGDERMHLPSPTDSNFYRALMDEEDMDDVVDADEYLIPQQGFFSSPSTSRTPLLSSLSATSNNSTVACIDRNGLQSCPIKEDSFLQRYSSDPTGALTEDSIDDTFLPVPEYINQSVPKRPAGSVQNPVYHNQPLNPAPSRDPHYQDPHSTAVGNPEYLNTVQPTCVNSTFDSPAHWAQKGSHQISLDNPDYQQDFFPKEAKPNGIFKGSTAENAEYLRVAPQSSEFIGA
T2 sequence (P00533 25-1210 C797S/L858R): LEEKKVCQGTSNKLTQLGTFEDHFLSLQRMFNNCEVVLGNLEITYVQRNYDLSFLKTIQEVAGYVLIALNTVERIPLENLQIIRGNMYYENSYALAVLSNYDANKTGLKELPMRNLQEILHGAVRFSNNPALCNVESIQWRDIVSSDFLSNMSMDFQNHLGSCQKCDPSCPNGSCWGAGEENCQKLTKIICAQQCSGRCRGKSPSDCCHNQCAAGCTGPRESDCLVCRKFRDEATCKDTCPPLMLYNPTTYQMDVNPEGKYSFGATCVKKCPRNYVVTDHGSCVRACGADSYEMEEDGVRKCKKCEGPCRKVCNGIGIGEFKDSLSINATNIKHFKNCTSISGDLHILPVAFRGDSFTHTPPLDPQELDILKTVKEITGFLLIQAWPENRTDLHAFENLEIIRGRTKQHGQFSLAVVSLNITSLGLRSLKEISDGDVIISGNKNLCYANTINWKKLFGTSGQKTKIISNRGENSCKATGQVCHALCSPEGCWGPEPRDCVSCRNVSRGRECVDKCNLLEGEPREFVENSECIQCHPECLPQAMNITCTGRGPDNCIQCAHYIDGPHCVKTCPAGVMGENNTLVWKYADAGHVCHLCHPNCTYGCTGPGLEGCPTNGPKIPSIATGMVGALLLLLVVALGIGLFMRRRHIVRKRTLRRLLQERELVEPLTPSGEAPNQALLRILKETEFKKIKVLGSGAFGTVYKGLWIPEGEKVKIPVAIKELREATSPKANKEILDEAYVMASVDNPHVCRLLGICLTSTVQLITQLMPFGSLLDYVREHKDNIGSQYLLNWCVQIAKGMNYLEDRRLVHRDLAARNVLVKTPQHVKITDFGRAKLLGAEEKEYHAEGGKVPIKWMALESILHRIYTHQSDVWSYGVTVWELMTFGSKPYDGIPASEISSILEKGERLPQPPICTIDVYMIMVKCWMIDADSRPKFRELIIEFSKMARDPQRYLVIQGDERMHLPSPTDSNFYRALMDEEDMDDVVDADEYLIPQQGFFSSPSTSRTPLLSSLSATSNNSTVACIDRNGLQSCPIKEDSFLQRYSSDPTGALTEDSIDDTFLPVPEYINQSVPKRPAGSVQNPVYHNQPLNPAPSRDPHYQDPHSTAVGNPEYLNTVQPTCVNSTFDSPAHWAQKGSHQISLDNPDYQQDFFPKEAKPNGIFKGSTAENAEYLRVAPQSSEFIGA
T7 sequence (P00533 25-1210 T790M/L858R): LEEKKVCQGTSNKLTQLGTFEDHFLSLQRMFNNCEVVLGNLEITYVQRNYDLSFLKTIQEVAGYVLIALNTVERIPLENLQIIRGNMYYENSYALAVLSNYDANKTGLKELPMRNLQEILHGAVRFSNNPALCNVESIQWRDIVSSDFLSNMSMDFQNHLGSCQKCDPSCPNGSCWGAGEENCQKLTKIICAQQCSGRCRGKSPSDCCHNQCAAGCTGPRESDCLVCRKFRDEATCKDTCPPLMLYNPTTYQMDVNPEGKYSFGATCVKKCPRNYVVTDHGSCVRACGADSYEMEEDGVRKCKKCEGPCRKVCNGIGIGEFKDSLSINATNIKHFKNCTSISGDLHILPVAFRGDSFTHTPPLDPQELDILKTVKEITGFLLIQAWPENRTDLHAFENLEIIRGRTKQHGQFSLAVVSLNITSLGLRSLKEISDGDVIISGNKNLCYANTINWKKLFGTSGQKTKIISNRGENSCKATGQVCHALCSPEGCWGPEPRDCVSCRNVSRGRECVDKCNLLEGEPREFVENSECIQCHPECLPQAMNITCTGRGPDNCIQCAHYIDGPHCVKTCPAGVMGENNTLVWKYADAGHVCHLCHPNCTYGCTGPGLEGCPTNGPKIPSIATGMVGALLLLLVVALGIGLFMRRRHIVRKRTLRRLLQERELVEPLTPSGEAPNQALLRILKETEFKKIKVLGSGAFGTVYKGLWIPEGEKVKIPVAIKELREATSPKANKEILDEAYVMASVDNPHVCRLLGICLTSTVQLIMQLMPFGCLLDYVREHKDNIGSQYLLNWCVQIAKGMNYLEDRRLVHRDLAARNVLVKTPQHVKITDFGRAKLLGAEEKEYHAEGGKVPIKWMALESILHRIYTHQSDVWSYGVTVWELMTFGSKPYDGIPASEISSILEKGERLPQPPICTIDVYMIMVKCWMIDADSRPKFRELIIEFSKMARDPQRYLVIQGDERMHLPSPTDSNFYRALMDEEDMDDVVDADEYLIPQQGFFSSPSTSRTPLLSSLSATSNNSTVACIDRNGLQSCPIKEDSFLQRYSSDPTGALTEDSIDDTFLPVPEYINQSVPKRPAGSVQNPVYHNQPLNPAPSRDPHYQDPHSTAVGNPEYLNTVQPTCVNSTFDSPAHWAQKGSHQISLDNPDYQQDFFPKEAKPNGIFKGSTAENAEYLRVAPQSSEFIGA
T3 sequence (P00533 with tags, fused parts or gaps DEL746-750 limits assumed): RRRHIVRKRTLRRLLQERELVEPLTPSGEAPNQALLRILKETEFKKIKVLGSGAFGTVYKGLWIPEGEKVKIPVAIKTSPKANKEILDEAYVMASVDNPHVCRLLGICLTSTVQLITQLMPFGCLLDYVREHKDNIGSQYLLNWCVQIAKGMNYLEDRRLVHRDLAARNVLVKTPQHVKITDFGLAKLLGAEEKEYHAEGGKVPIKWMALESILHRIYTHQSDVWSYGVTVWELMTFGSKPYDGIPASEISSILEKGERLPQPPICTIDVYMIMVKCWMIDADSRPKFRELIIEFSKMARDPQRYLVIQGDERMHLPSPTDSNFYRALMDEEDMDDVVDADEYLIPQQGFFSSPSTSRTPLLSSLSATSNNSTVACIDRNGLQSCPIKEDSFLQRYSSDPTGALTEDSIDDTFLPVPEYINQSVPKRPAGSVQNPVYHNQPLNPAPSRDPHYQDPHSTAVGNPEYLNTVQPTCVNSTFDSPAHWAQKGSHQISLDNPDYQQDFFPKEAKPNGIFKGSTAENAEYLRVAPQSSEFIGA
T4 sequence (P00533 with tags, fused parts or gaps DEL746-750/C797S limits assumed): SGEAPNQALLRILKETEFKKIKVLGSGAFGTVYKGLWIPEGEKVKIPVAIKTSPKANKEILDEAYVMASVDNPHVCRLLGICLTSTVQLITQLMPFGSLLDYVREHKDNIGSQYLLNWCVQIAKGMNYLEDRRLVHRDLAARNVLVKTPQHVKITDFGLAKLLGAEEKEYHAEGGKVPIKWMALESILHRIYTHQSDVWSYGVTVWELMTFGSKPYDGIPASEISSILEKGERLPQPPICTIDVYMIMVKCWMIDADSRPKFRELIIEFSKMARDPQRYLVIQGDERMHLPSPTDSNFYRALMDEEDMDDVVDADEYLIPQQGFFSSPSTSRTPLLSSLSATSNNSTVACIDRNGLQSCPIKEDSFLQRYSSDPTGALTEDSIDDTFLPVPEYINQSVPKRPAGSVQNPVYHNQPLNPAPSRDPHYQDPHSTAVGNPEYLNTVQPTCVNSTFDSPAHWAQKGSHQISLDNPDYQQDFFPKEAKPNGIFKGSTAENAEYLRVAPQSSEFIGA

SMILES	IC50 [1] [nM]	IC50 [2] [nM]	IC50 [3] [nM]	IC50 [4] [nM]	IC50 [5] [nM]	IC50 [6] [nM]	GI50 ([7]; A-431 cells) [nM]	IC50 [8] [nM]	IC50 [9] [nM]	GI50 [10, 13] [nM]	GI50 [10, 14] [nM]	GI50 [10, 15] [nM]	GI50 [10, 16] [nM]	GI50 [10, 17] [nM]	GI50 [10, 18] [nM]	GI50 [10, 19] [nM]	IC50 [11] [nM]	GI50 [12] [nM]	GI50 [7, 20] [nM]
Cn1ncc2c1OCCN1CC3CCC(C3)(C1)n1c(nc3ccc(N4CCN(C5CC5)CC4)cc31)NC(=O)c1cc-2c(=O)n(C)c1 (single isomer, unassigned) [Example A83A]	> 5000	2600	428	577	2020	> 5000	7760	> 5000	> 5000	176	789	993	468	1090	1130	585	> 5000	766	
Cn1ncc2c1OCCN1CC3CCC(C3)(C1)n1c(nc3ccc(N4CCN(C5CC5)CC4)cc31)NC(=O)c1cc-2c(=O)n(C)c1 (single isomer, unassigned) [Example A83B]	2.7	5	0.96	0.96	5	83	1190	2.8	2.3	0.7	10	13	8.9	15	25	10	2.7	20	
CN(C)C1CN(c2ccc3nc4n(c3c2)C23CCC(CN(CCOc5c(cnn5C)-c5cc(cn(C)c5=O)C(=O)N4)C2)C3)CC1F (single isomer, unassigned) [Example A84A, 15,21-Dimethyl-5-[4-fluoro-3-(N,N-dimethylamino)pyrrolidinyl]-23-oxa-2,9,11,15,20,21,26-heptaazaheptacyclo[24.4.1.1^{1,28}.1^{13,17}.0^{2,10}.0^{3,8}.0^{18,22}]tritriaconta-3,5,7,9,13,17(33),18(22),19-octaene-12,16-dione]	> 5000	1180	226	258	830	> 5000	3990	> 5000	> 5000	98	232	311	190	362	402	171	> 5000	214	
CN(C)C1CN(c2ccc3nc4n(c3c2)C23CCC(CN(CCOc5c(cnn5C)-c5cc(cn(C)c5=O)C(=O)N4)C2)C3)CC1F (single isomer, unassigned) [Example A84C, 15,21-Dimethyl-5-[4-fluoro-3-(N,N-dimethylamino)pyrrolidinyl]-23-oxa-2,9,11,15,20,21,26-heptaazaheptacyclo[24.4.1.1^{1,28}.1^{13,17}.0^{2,10}.0^{3,8}.0^{18,22}]tritriaconta-3,5,7,9,13,17(33),18(22),19-octaene-12,16-dione]	3.4	4.8	2.6	1.4	6.7	57	727	5	3.5	0.72	2.1	2.1	3.9	6	12	2.7	2.5	6.6	
CN(C)C1CN(c2ccc3nc4n(c3c2)C23CCC(CN(CCOc5c(cnn5C)-c5cc(cn(C)c5=O)C(=O)N4)C2)C3)CC1F (single isomer, unassigned) [Example A84D, 15,21-Dimethyl-5-[4-fluoro-3-(N,N-dimethylamino)pyrrolidinyl]-23-oxa-2,9,11,15,20,21,26-heptaazaheptacyclo[24.4.1.1^{1,28}.1^{13,17}.0^{2,10}.0^{3,8}.0^{18,22}]tritriaconta-3,5,7,9,13,17(33),18(22),19-octaene-12,16-dione]	3.9	9.8	3.1	2.4	21	196	1770	4.6	4.4	0.77	13	14	16	31	40	14	3.3	29	
CN(C)CCN(C)c1ccc2nc3n(c2c1)C12CCC(CN(CCOc4c(cnn4C)-c4cc(cn(C)c4=O)C(=O)N3)C1)C2 (single isomer, unassigned) [Example A85B]	2.2	5.5	1.2	1.6	11	84		3.1	3.1	0.5	1.1	0.78	1.6	1.2	7.7	1.3	2.2	12	969
CN1CCOC2(C1)CN(c1ccc3nc4n(c3c1)C13CCC(CN(CCOc5c(cnn5C)-c5cc(cn(C)c5=O)C(=O)N4)C1)C3)C2 (single isomer, unassigned) [Example A86B]	9.5	14	4	3.9	16	110		12	8.1	0.71	1.9	2.4	5.2	4.2	10	1.2	8.5	26	2670
Cn1ncc2c1OCCN1CC3CCC(C3)(C1)n1c(nc3ccc(N4CCC(N5CC(F)C5)CC4)cc31)NC(=O)c1cc-2c(=O)n(C)c1 (single isomer, unassigned) [Example A87A]	> 5000	> 5000	842	995	4480	> 5000	382	> 5000	> 5000	61	238	178	124	233	311	192	4000	452	
Cn1ncc2c1OCCN1CC3CCC(C3)(C1)n1c(nc3ccc(N4CCC(N5CC(F)C5)CC4)cc31)NC(=O)c1cc-2c(=O)n(C)c1 (single isomer, unassigned) [Example A87B]	9.5	8.9	2.8	4.1	9.3	36	5970	8.8	8.7	0.7	4	4.6	7.9	7.7	13	3.4	8.6	25	
